Results as given in US8569298B2, “Pyridine compounds” (Astrazeneca AB, priority 2008, dated 2013).

Target: T1, FAK enzyme (6 His tagged kinase domain, GenBank NP—722560) (Homo sapiens, UniProt Q05397)
T1 construct: 6 His; made in house; host or cells: insect cell culture infected with baculovirus
Test: In vitro enzyme assay (a): sandwich ELISA of FAK tyrosine kinase activity on polyGAT peptide, TMB colorimetric endpoint
Format: biochemical
Details: in vitro Enzyme Assay test (a); ATP at Km; geometric mean of n > 1 measurements, values marked * tested once
Procedure: (a) In Vitro Enzyme Assay
A sandwich ELISA assay with a 3,3′,5,5′-tetramethyl benzidine (TMB) colorimetric endpoint was used in order to determine the level of effect of selected compounds on inhibition of FAK protein tyrosine kinase enzyme activity. A synthetic tyrosine containing peptide is coated onto a plastic surface, the level of phosphorylation of these tyrosine residues by the kinase enzyme in the presence of inhibitors is measured using an antibody that binds specifically to phosphorylated tyrosine residues. The amount of antibody bound to substrate is proportional to the level of enzyme catalysis.
Assay Protocol to Identify Inhibitors of Focal Adhesion Kinase (FAK).
A PlateMate Plus™ 384 automated liquid handling unit with a 100 μl disposable tip head was used to make all the non compound reagent additions and a Tecan 384PW plate washer with 384 head was used for all wash steps. Initially Matrix 384 well polystyrene plates (Cat #:4311) were coated with 40 μl/well of a 0.0375 mg/ml solution of synthetic poly peptide (polyGAT, Sigma Cat #:P3899) dissolved in phosphate buffered saline (PBS). Plates were stored overnight at 4° C. Immediately before use the coating solution was aspirated out and each well washed with 2×100 μl of PBS+0.05% Tween 20. To remove surplus phosphate, the wells were then washed with 2×100 μl 50 mM HEPES buffer pH 7.4. Plates were blotted dry before the addition of compounds. Compounds were tested over a 12 point dose range, a Labcyte Echo 550 was used to dispense compounds in nl volumes and back fill with DMSO. The final concentration of compound in the assay was dependent on the starting concentration of compound. For a 10 mM stock compound the final assay dose ranged from 100 μM down to […]. Control wells containing 120 nl DMSO (Max) or 120 nl of 10 mM staurosporine (LC Laboratories, Boston, USA Cat #: S-9300) (Min) were included in each plate. 10 ul of 5% dimethyl sulfoxide v/v (DMSO, Fisher Scientific) was added to each well immediately prior to addition of 10 μl of a co-factor solution containing 80 mM MgCl2 (Sigma Cat #: M1028); 80 mM MnCl2 (Sigma Cat #: M1787); ATP at a concentration calculated to enable the initial reaction velocity to progress at half the maximum velocity (Km for ATP) (Sigma Cat #:A7699). A final addition of 20 μl of enzyme solution containing 100 mM HEPES pH7.4; 0.2 mM sodium vanadate (Sigma Cat #:S6508); 0.2 g/l bovine serum albumin (BSA, Sigma Cat #: A7888); 0.2 mM dithioreitol (Sigma Cat #: 5545); 0.1% Triton X100 (Sigma Cat #:X100); FAK enzyme (20 μl/ml) was made to each well to start the assay running FAK enzyme was generated from an insect culture infected with baculo virus containing the DNA sequence encoding the 6 His tagged kinase domain (GenBank NP_722560).
Plates were left at room temperature for 25 minutes before 10 μl of 500 mM ethylenediaminetetraacetic acid (EDTA) was added to stop the assay and the wells were immediately washed 3×100 μl with PBS+0.05% Tween 20. A 4G10 antibody (Millipore Cat #: 16-105; 16-184) with a directly conjugated horse radish peroxidase (HRP) was used to detect the phosphorylation of the substrate by the FAK. 40 μl of PBS+0.05% Tween 20 containing 0.5% BSA and 0.1 μl/ml antibody was added to each well and left for 1 hour at room temperature to allow the antibody to bind. After this period the wells were again washed with 3×100 μl of PBS+0.05% Tween 20. TMB (Sigma Cat #: T2885) was used as a substrate for the HRP. Phosphate-citrate buffer was made up using capsules provided by Sigma (Cat #: P4922) following the manufacturers guidelines. TMB was dissolved at a concentration of 1 mg/ml in DMSO and let down to a final concentration of 0.05 mg/ml with the phosphor-citrate buffer. 40 μl of the TMB solution was added to each assay well and left for 30 minutes for the blue colour to develop. […]

T1 sequence (Q05397 422-680 limits assumed): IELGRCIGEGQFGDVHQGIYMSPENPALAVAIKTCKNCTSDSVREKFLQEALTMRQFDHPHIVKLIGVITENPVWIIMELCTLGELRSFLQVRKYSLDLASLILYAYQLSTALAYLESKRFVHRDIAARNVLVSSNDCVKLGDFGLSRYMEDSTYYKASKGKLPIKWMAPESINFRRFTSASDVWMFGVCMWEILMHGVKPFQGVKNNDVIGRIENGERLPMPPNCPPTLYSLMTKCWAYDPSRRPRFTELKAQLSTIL

Structure (SMILES)	IC50 [µM]
CNC(=O)c1ccccc1Nc1cc(Nc2cn(C)nc2C)ncc1C#N [Example 1.01, 2-[[5-Cyano-2-[(1,3-dimethylpyrazol-4-yl)amino]-4-pyridyl]amino]-N-methyl-benzamide]	0.065
CNC(=O)c1ccccc1Nc1cc(Nc2cc(OC)nn2C)ncc1C#N [Example 1.02, 2-[[5-cyano-2-[(5-methoxy-2-methylpyrazol-3-yl)amino]pyridin-4-yl]amino]-N-methylbenzamide]	0.102
CON(C)C(=O)c1ccccc1Nc1cc(Nc2cn(C)nc2C)ncc1C#N [Example 1.03, 2-[[5-Cyano-2-[(1,3-dimethylpyrazol-4-yl)amino]-4-pyridyl]amino]-N-methoxy-N-methyl-benzamide]	0.554
CN1CCc2cccc(Nc3cc(Nc4cnn(C)c4)ncc3C#N)c2C1=O [Example 1.04, 4-[(2-Methyl-1-oxo-3,4-dihydroisoquinolin-8-yl)amino]-6-[(1-methylpyrazol-4-yl)amino]pyridine-3-carbonitrile]	0.014
Cc1cc(Nc2cc(Nc3cccc4c3C(=O)N(C)CC4)c(C#N)cn2)nn1C [Example 1.05, 6-[(1,5-dimethylpyrazol-3-yl)amino]-4-[(2-methyl-1-oxo-3,4-dihydroisoquinolin-8-yl)amino]pyridinc-3-carbonitrile]	0.004
COc1cc(Nc2cc(Nc3cccc4c3C(=O)N(C)CC4)c(C#N)cn2)n(C)n1 [Example 1.06, 6-[(5-methoxy-2-methylpyrazol-3-yl)amino]-4-[(2-methyl-1-oxo-3,4-dihydroisoquinolin-8-yl)amino]pyridine-3-carbonitrile]	0.02
CN1CCC(n2cc(Nc3cc(Nc4cccc5c4C(=O)N(C)CC5)c(C#N)cn3)cn2)CC1 [Example 1.07, 4-[(2-methyl-1-oxo-3,4-dihydroisoquinolin-8-yl)amino]-6-[[1-(1-methyl-4-piperidyl)pyrazol-4-yl]amino]pyridine-3-carbonitrile]	0.128
Cc1nn(C)cc1Nc1cc(Nc2cccc3c2C(=O)N(C)CC3)c(C#N)cn1 [Example 1.08, 6-[(1,3-dimethylpyrazol-4-yl)amino]-4-[(2-methyl-1-oxo-3,4-dihydroisoquinolin-8-yl)amino]pyridine-3-carbonitrile]	0.006
Cc1nn(C)cc1Nc1cc(Nc2ccc(N3CCN(C(C)C)CC3)c3c2C(=O)N(C)C3)c(C#N)cn1 [Example 1.09, 6-[(1,3-Dimethylpyrazol-4-yl)amino]-4-[[7-(4-isopropylpiperazin-1-yl)-2-methyl-3-oxo-isoindolin-4-yl]amino]pyridine-3-carbonitrile]	0.019

Next, values leading:

IC50 [µM]	Structure (SMILES)
0.019	CNC(=O)c1ccccc1Nc1cc(Nc2cc(C)n(C)n2)ncc1C(F)(F)F [Example 2.01, 2-[[2-[(1,5-Dimethylpyrazol-3-yl)amino]-5-(trifluoromethyl)-4-pyridyl]amino]-N-methyl-benzamide]
0.008	CNC(=O)c1ccccc1Nc1cc(Nc2cn(C)nc2C)ncc1C(F)(F)F [Example 2.02, 2-[[2-[(1,3-dimethylpyrazol-4-yl)amino]-5-(trifluoromethyl)-4-pyridyl]amino]-N-methyl-benzamide]
0.044	CONC(=O)c1ccccc1Nc1cc(Nc2cn(C)nc2C)ncc1Cl [Example 3.01, 2-[[5-Chloro-2-[(1,3-dimethylpyrazol-4-yl)amino]-4-pyridyl]amino]-N-methoxy-benzamide]
0.041	CONC(=O)c1ccccc1Nc1cc(Nc2cc(C)n(C)n2)ncc1Cl [Example 3.02, 2-[[5-chloro-2-[(1,5-dimethylpyrazol-3-yl)amino]-4-pyridyl]amino]-N-methoxy-benzamide]
0.08	CNC(=O)c1ccccc1Nc1cc(Nc2cnn(CC(=O)N3CCCC3)c2)ncc1Cl [Example 3.03, 2-[[5-Chloro-2-[[1-(2-oxo-2-pyrrolidin-1-yl-ethyl)pyrazol-4-yl]amino]-4-pyridyl]amino]-N-methyl-benzamide]
